Reference: patent publication US11969428B2, “Methods and pharmaceutical compositions for treating lymphoid malignancy” (priority 2011, dated 2024)

Tests used:
CCRF-CEM cells = test: Cell proliferation and apoptosis (cell counting, Annexin V); type: cell-based, human
Experimental: (§1) Cell proliferation of CCRF-CEM cells or shRNA transfected CCRF-CEM cells, in the presence or absence of appropriate drug, was followed by cell counting of samples in triplicate using a hemocytometer and trypan blue. For apoptosis determinations of untransfected or shRNA transfected CCRF-CEMs, cells were stained with APC-conjugated Annexin-V (BD Biosciences) in Annexin Binding Buffer (Miltyeni Biotec) and analyzed by flow cytometry. For primary T-ALL samples, cell viability was assessed using the BD Cell Viability kit (BD Biosciences) coupled with the use of fluorescent counting beads as previously described (Armstrong et al., 2009). For this, cells were plated with MS5-DL1 stroma cells, and after 72 hours following drug treatment cells were harvested and stained with an APC-conjugated anti-human CD45 followed by a staining with the above kit according to the manufacturer's instructions.

Akt/PKB phosphorylation = test: TCR-induced Akt/PKB phosphorylation in thymocytes (Western blot); type: cell-based, mouse; details: p110γ−/− thymocytes; IC87114 10 μM
Experimental: Cell lysates (from cell lines or thymocytes) were prepared on ice in M-PER Mammalian Protein Extraction reagent (Pierce) containing a cocktail of protease and phosphatase inhibitors (Swat et al., 2006). Equal amounts of total protein from lysates were subjected to SDS-PAGE, transferred to PVDF membrane (Immobilon-P, Millipore), and membranes probed by overnight incubation with appropriate primary antibodies. Bound antibodies were visualized with HRP-conjugated secondary antibodies and ECL chemistry (SuperPico West, Pierce).
To assess the requirement for p110δ in TCR-induced phosphorylation of Akt/PBK, single-cell suspensions of thymocytes (1×10^8/mL) from PI3Kγ-deficient animals were incubated with the p110δ-specific inhibitor IC87114 (10 μM) or with vehicle control (DMSO) for 30 minutes before TCR cross-linking, as described for the Ca^2+ flux assay. Aliquots (100 μL) were collected at 0, 10, 30, and 60 minutes after TCR cross-linking, briefly centrifuged to pellet, and subsequently lysed with ice-cold M-Per (Pierce, Rockford, IL) (according to the manufacturer's recommendations) that contained a cocktail of phosphatase and protease inhibitors (Puri et al., 2005). Lysates were clarified by centrifugation (12,000 g for 15 minutes at 4° C.), and total and phosphorylated Akt/PBK were determined by Western blot analysis.

CD4+CD8+ DP thymocytes = test: Fetal thymus organ culture, flow cytometry; type: cell-based, mouse; details: IC87114 10 μM, 1 week
Text: Thymus lobes were obtained from mouse embryos, with embryonic day 0 (EO) considered the day of vaginal plug detection. Fetal thymus organ cultures were used to compare the effects of pharmacologic blockade of p110δ activity on thymocyte development in WT, p110δ^−/−, and p110γ^−/− mice. Briefly, 3 to 4 intact thymi were placed on bare filter inserts (transwell, 3-μm pore size; Corning Costar, Cambridge, MA) and then were inserted into wells containing DMEM, 10% FCS supplemented with either p110δ-specific inhibitor IC87114 (10 μM) or vehicle control (DMSO), and incubated for 1 week at 37° C. in 5% CO2. Thymocyte differentiation was evaluated by flow cytometry.

[1] = system: primary human T-ALL tumor cells; test: Primary T-ALL cell viability on MS5-DL1 stroma; type: cell-based; details: selective blockade of PI3Kδ
Experimental: as §1

[2] = CCRF-CEM with p110γ shRNA knockdown, IC87114 10 μM

Cc1ccccc1-n1c(Cn2cnc3c(N)ncnc32)nc2cccc(C)c2c1=O [IC87114, reference compound]
proliferation and apoptosis (CCRF-CEM cells; CCRF-CEM containing empty vector alone, IC87114): no major effect | apoptosis (CCRF-CEM cells; [2]): promoted apoptosis | proliferation (CCRF-CEM cells; [2]): prevented proliferation | phosphorylated form of Akt/PKB after TCR cross-linking (Akt/PKB phosphorylation): not detected | reduction in the population of CD4+CD8+ DP thymocytes (CD4+CD8+ DP thymocytes; p110γ−/− day 14.5 fetal thymi, mean±SE): 69.2%±2.7% | decrease in DP cells (CD4+CD8+ DP thymocytes; p110δ−/− or WT control fetal thymi): ≤ 10% | viability of primary human T-ALL samples [1]: ineffective
